Assay results taken from PMC8287724, “Reducing Auditory Nerve Excitability by Acute Antagonism of Ca^2+-Permeable AMPA Receptors” (Frontiers in Synaptic Neuroscience, 2021).
Several values for one entry are separate records, joined by “and”; a condition that tells them apart may be missing. Equal values may be shown once. Read-outs that look alike come from different tables or passages of the source.

Legend:
[1] = test system: cochlear afferent synapses; parameters: method as in Hu et al., 2020; conditions: mouse; ~2.5 days of sustained intracochlear delivery; synaptopathic noise ref Hu et al., 2020; cited from earlier work
[2] = In vitro microsomal stability assay, guinea pig; assay type: in vitro ADME; conditions: pH 7.4; guinea pig liver microsomes, 1 μM compound, 37°C; read-out: Half-life (min) Mean (N = 2)
Procedure: The stability of IEM-1460 in the presence of guinea pig liver microsomes (BioIVT, PN: X008070) or IEM-1925 in the presence of human (BioIVT, PN: M00101), mouse, or guinea pig liver microsomes was evaluated (Paraza Pharma, Inc., Montreal, Quebec, Canada). Both IEM-1925 and IEM-1460 were incubated with microsomes at 37°C for a total of 45 min. Working solutions were prepared in 100 mM potassium phosphate buffer and the final reaction was performed at pH 7.4 in 100 mM potassium phosphate buffer containing 0.5 mg/mL liver microsomal protein. Phase I metabolism was assessed by adding NADPH to a final concentration of 1 mM and collecting samples at time points 0, 5, 15, 30, and 45 min. All collected samples were quenched 1:1 with ice-cold stop solution (1 μM labetalol and 1 μM glyburide in acetonitrile) and centrifuged to remove precipitated protein. […] Samples were analyzed by LC-MS/MS using a Thermo Vanquish UPLC and a Thermo Quantis triple quadrupole mass spectrometer. […] Reference compounds were also assessed to ensure accuracy and precision of experimental protocol: imipramine and verapamil for human liver microsomes, diphenhydramine and verapamil for mouse liver microsomes, and warfarin and verapamil for guinea pig liver microsomes. […] Half-life was determined from a plot of the natural logarithm of the peak area ratio (remaining compound peak area/internal standard peak area) against time. […]

[3] = Drug levels in blood, perilymph and CSF after IP injection (LC/MS); assay type: in vivo, guinea pig; conditions: for Kp / half-life: NIH-strain, pigmented, guinea pig; for Kp: ip; for half-life: blood, in vivo, IP injection: IEM-1460 13.5 mg/kg, IEM-1925 8 mg/kg, estimated from PK data, read-out: elimination half-life in blood
Procedure: After at least 30 min of baseline data, 1 mL of Lactated Ringer's was injected into the peritoneal space of the guinea pig as a vehicle control. Then, 13.5 mg/kg IEM-1460 or 8 mg/kg IEM-1925 in Lactated Ringer's was injected into the peritoneal space of the guinea pig. The entire experiment took ~3 h to complete: 1 h for anesthetic induction and surgery, 30 min for sound calibration and CAP threshold measurements, and 2 h for drug delivery, DPOAE and CAP measurements. After collection of perilymph and CSF, the animal was euthanized via saturated KCl delivered directly into the jugular vein.
General surgical scissors were used to clip the toenail at a 45° angle to collect blood with a premarked glass capillary tube during the baseline period and after drug injection. The exact volume was determined by measurement of the fluid meniscus in a calibrated capillary tube. […] Complete details used to perform apical fluid sampling are presented elsewhere and are only briefly provided here (Mynatt et al., [2006]). Similar to the apical cochlear fenestration used to deliver drugs (described above), the mucosa on the cochlea was cleared from two apical turns using a small cotton swab, and the bone at the apex was allowed to dry. A droplet of thin cyanoacrylate adhesive was applied and cup formed over the apex with silicone adhesive. A small perforation (50–100 μm diameter) was then made in the bone over scala vestibuli at the apex using a 30° pick. Upon perforation, fluid immediately started emerging, driven by intralabyrinthine pressure from CSF, and formed a bead within the hydrophobic silicone cup. A calibrated 5 μL capillary micropipette (VWR #5342-706, S. Plainfield, NJ) was held by hand in contact with the fluid at the apex, so that fluid was drawn into the capillary in ~30 s. The exact volume was determined by measurement of the fluid meniscus. Perilymph from the opposite ear was sampled prior to euthanizing the animal, then ~2 μL of CSF was aspirated by inserting a micropipette through the dura mater into the cisterna magna. After the fluid meniscus from the capillary tube was measured, the capillary tube was then flushed with 25.0 μL 50:50 methanol-water solvent to ensure that all the sample was collected.
The concentration of IEM-1460 in perilymph, blood, and CSF was analyzed using LC-MS (Confluence Life Sciences, St. Louis, MO). LC-MS-grade acetonitrile, LC-grade methanol, formic acid, sodium hydroxide 0.1 M, perfluoroheptanoic acid, formic acid, and hydrochloric acid were purchased from Sigma-Aldrich (USA). Deionized water (R > 18 MΩ/cm, TOC <10 ppb) was used throughout all these experiments. IEM-1460 and IEM-1925 were purchased from Tocris Bioscience (Bristol, UK). A 10 mM stock solution was made for both IEM-1460 and IEM-1925 in 50% aqueous methanol. For calibration of the specific compound concentration in the tested matrix (i.e., plasma or CSF/perilymph), a set of standard solutions were prepared by diluting concentrated stock solutions with 50% aqueous methanol into guinea pig plasma matrix or artificial perilymph (in mM: 127.5 NaCl, 3.5 KCl, 25 NaHCO3, 1.3 CaCl2, 1.2 MgCl2, 0.75 NaH2PO4, and 11 glucose) to have a set of standards from 1 to 300 ng/mL. […] Calibration standard samples using verapamil were prepared for each batch of samples ranging from 1 to 300 ng/mL and injected at both the beginning and end of the sample sequence. The methodology for LC-MS for blood has previously been described (Da Silva et al., [2016]; Guiraud et al., [2017]). Separation and analysis were performed on a LC instrument (Exion LC AD, AB SCIEX, USA) coupled to a Sciex QTRAP5500 with TurboV Ion Source (SCIEX, Concord, ON, Canada) equipped with a heated electrospray ionization (H-ESI) source. Chromatographic separation was obtained using a gradient elution on a reversed-phase Kinetex F5 (Phenomenex, Aschaffenburg, Germany) column (2.1 × 50 mm), packed with 1.7 μm diameter particles. […]

Compound	effect on noise-induced synapse loss and ABR wave-I amplitude [1]	half-life at 1 μM [2] [min]	time to plateau of blood plasma concentration ([3]; IP 13.5 mg/kg) [min]	concentration in blood plasma at plateau ([3]; IP 13.5 mg/kg, average, N = 3)	concentration in blood ([3]; IP 13.5 mg/kg, converted from 7 μg/mL) [µM]	perilymph level as % of blood level ([3]; IP 13.5 mg/kg, ~2 h after injection, N = 3, 13.5 mg/kg)	concentration in perilymph ([3]; IP 13.5 mg/kg, ~2 h after injection, from blood level and perilymph/blood ratio, 13.5 mg/kg)	Kp ([3]; CSF relative to blood, 13.5 mg/kg, IP 13.5 mg/kg, ~2 h after injection, N = 3, read-out: CSF level as % of blood level)	half-life [3] [min]	Kp ([3]; perilymph relative to blood, 13.5 mg/kg, IP 13.5 mg/kg, ~2 h after injection, N = 3, read-out: perilymph level as % of blood level)	LC/MS detection in perilymph or CSF ([3]; IP 8 mg/kg)	levels detected in blood ([3]; IP 8 mg/kg)
C[N+](C)(C)CCCCCNCC12CC3CC(CC(C3)C1)C2 [IEM-1460]	prevented synapse loss and loss of wave-I amplitude	> 300	≤ 30	~ 7 μg/mL	23.8	17–45%	4–11 μM and ~ 7 μM	0.08 to 0.23	118	~0.3		
NCCCCCNC1(c2ccccc2)CCCCC1 [IEM-1925]		> 300							68		did not detect significant	Very low levels
